Patent US7396853B2, “2-phenyl-3,3,3-trifluoro-2-hydroxy-propionic acid derivatives” (Hoffmann-La Roche Inc., priority 2005, dated 2008)

How the values were obtained:
[1] = molecular target: T1, human GABABR1aR2a (Homo sapiens, UniProt O75899+Q9UBS5); assay: Intracellular Ca2+ mobilization assay in CHO-GABABR1aR2a-Gα16 cell (enhancer concentration-response at 10 nM GABA); type: cell-based; conditions: for EC50: enhancer potency in presence of 10 nM GABA (EC10), CHO cells expressing human GABABR1aR2a and Gα16; for Emax: maximum enhancing effect in presence of 10 nM GABA (EC10), normalized to 10 μM GABA alone = 100%, 10 nM GABA alone = 0%, enhancer 0.001-30 μM applied 15 min before GABA
T1 construct: expressed in transfected cells
T1 sequence (Q9UBS5 15-961 limits assumed): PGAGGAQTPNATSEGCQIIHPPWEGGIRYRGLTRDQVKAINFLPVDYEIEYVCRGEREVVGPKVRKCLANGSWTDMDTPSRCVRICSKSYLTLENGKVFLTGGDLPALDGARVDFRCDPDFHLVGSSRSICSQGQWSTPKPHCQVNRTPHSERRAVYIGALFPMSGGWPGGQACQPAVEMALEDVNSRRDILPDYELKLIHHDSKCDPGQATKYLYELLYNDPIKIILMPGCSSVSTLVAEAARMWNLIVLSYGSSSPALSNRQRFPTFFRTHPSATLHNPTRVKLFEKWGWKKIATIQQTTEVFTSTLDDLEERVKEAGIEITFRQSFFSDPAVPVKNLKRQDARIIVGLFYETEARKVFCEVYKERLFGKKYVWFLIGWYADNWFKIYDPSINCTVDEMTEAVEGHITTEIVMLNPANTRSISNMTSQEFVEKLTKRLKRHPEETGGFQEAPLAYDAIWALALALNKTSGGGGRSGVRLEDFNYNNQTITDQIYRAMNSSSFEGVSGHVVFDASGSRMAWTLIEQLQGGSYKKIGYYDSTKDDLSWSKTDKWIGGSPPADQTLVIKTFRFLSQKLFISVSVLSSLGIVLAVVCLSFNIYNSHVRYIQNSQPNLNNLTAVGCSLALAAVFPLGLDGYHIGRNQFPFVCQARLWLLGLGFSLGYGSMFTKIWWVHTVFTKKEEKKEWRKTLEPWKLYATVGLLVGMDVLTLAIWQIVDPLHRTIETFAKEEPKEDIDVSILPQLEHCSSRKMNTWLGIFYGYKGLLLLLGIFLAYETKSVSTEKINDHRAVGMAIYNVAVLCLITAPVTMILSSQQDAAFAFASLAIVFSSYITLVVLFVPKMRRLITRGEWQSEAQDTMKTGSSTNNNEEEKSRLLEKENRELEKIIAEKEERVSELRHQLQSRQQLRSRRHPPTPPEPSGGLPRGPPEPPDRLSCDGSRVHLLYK
T1 sequence (O75899 42-941): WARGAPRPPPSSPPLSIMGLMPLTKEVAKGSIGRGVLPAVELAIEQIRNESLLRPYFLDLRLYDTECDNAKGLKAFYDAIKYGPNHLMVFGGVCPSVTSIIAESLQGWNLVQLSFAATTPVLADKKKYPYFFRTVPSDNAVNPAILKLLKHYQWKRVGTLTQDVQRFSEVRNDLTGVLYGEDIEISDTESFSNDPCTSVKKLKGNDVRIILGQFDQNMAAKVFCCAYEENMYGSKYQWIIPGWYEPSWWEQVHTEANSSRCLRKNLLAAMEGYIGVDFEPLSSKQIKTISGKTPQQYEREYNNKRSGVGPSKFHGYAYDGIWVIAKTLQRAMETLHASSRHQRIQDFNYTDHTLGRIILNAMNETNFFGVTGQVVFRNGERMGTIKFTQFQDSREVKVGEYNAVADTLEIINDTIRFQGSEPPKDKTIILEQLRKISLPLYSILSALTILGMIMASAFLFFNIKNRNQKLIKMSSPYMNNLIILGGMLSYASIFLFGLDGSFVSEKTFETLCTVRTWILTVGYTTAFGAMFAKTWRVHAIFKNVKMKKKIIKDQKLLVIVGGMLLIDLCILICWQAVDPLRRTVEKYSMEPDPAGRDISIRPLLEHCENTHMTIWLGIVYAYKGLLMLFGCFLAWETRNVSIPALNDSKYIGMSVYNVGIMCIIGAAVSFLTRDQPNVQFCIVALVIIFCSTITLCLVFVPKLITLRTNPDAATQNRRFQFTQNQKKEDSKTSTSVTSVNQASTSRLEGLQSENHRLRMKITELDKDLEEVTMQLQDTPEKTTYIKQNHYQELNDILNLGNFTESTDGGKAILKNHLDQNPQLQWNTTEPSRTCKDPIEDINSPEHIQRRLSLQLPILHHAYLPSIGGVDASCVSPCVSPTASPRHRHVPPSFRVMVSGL
Experimental: (§1) Intracellular Ca^2+ Mobilization Assay
(§2) The Chinese Hamster Ovary (CHO) cells stably expressing human GABABR1aR2a and Gα16 were seeded at 5×10^4 cells/well in the poly-D-lysine treated, 96-well, black/clear-bottomed plates (BD Biosciences, Palo Alto, Calif.). […] Probenecid (250 mM) (catalog No. P8761) was from Sigma, Buchs, Switzerland. […] The enhancers were applied 15 min before the application of the GABA. For GABA shift assay, concentration-response curves of GABA (0.0003-30 μM) were determined in the absence and presence of 10 μM enhancer. […] Responses were measured as peak increase in fluorescence minus basal, normalized to the maximal stimulatory effect induced by 10 μM GABA alone (considered 100%) and 10 nM GABA alone (considered 0%).

[2] = molecular target: T1, human GABABR1aR2a; assay: GABA shift assay (GABA concentration-response with and without 10 μM enhancer, FLIPR Ca2+ mobilization in CHO-GABABR1aR2a-Gα16 cell); type: cell-based; conditions: GABA 0.0003-30 μM, log ratio
Experimental: as §1, §2

| Compound | EC50 [1] [µM] | Emax [1] [%] | GABA shift Log [EC50 (GABA + 10 μM cp)/EC50 (GABA alone)] [2] |
| --- | --- | --- | --- |
| COC(=O)C(O)(c1cc(C(C)(C)C)cc(C(C)(C)C)c1)C(F)(F)F (racemic) [Example 7, (R,S)-2-(3,5-Di-tert-butyl-phenyl)-3,3,3-trifluoro-2-hydroxy-propionic acid methyl ester] | 2.1 | 66 | −0.9 |
| Cc1cc(C(C)(C)C)c2c(c1)C(O)(C(F)(F)F)C(=O)O2 (racemic) [Example 9, (R,S)-7-tert-Butyl-3-hydroxy-5-methyl-3-trifluoromethyl-3H-benzofuran-2-one] | 0.36 | 62 | −1.3 |
| CC(C)(C)c1cc(C(C)(C)C)c(O)c(C(O)(C(=O)O)C(F)(F)F)c1 (racemic) [Example 3, (R,S)-2-(3,5-Di-tert-butyl-2-hydroxy-phenyl)-3,3,3-trifluoro-2-hydroxy-propionic acid] | 0.32 | 70 | −1 |
